Data set [1] can be described thus: Aqueous solubility of the compound. Conditions: aqueous medium.
For data set [2], the system named is NIH3T3. In words: Antiproliferative activity against mouse 3T3 cells expressing human CSF1R after 72 hrs by Celltiter assay. In kind it is functional.
Data set [3] in a line: Fraction unbound in plasma.
The target in data set [4] is Macrophage colony-stimulating factor 1 receptor (Homo sapiens) (UniProt P07333). Put plainly: Inhibition of CSF1R at 0.1 uM.
Data set [5] deals with Maternal embryonic leucine zipper kinase (Homo sapiens) (UniProt Q14680). Put plainly: Inhibition of MELK at 0.1 uM.
Chain of Maternal embryonic leucine zipper kinase (Homo sapiens) (Q14680 whole entry, looked up): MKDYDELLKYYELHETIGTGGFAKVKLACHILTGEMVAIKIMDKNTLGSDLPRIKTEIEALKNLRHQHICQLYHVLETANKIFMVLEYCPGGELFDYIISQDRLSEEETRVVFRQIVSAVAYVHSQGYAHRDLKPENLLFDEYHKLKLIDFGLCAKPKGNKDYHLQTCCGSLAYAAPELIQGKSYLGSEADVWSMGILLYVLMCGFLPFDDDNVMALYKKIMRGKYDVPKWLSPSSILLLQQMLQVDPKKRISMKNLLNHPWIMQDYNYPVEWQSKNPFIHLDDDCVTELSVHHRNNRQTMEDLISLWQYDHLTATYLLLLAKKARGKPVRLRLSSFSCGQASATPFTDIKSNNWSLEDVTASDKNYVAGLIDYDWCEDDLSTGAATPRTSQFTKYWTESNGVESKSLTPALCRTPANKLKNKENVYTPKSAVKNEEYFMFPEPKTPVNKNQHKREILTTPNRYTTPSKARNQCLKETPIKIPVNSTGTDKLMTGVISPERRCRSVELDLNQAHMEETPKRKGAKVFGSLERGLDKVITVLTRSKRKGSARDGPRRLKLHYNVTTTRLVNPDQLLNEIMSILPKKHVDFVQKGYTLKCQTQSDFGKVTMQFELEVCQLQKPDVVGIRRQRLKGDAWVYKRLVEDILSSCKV
Data set [6] concerns the target Ribosomal protein S6 kinase alpha-1 (Homo sapiens) (UniProt Q15418). In words: Inhibition of Rsk1 at 0.1 uM.
The target of data set [7] is Mast/stem cell growth factor receptor Kit (Homo sapiens) (UniProt P10721). In words: Inhibition of c-Kit at 0.1 uM.
Chain of Mast/stem cell growth factor receptor Kit (Homo sapiens) (P10721 whole entry): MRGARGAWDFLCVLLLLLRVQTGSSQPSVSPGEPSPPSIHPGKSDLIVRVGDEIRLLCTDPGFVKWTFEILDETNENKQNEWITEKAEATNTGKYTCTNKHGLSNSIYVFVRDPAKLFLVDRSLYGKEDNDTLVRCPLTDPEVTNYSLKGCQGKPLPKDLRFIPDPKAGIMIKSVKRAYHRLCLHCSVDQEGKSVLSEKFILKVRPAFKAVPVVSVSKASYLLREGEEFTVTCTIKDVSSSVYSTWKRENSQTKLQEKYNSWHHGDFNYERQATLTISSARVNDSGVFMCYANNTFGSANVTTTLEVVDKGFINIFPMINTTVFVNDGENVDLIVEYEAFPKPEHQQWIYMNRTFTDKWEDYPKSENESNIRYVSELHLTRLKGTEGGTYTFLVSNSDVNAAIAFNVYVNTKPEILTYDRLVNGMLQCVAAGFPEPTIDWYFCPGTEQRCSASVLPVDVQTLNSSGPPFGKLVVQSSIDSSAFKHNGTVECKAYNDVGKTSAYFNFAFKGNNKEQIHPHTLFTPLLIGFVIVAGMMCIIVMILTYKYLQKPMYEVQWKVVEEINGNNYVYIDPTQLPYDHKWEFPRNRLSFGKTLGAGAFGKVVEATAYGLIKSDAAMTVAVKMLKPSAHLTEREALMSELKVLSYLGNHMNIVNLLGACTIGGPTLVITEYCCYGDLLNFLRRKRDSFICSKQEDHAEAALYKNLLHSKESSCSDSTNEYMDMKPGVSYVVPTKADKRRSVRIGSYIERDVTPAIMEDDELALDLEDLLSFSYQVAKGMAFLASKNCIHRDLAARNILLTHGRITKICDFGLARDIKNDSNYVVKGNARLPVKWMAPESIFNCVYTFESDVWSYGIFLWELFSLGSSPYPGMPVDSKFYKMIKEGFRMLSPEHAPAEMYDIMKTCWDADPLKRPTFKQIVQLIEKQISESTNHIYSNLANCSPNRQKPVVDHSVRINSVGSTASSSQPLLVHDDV
Data set [8] has as its target Maternal embryonic leucine zipper kinase (Homo sapiens) (UniProt Q14680). In words: Inhibition of MELK at 1 uM.
The target in data set [9] is T1, NUAK family SNF1-like kinase 1 (Homo sapiens) (UniProt O60285).
T1 sequence (whole entry): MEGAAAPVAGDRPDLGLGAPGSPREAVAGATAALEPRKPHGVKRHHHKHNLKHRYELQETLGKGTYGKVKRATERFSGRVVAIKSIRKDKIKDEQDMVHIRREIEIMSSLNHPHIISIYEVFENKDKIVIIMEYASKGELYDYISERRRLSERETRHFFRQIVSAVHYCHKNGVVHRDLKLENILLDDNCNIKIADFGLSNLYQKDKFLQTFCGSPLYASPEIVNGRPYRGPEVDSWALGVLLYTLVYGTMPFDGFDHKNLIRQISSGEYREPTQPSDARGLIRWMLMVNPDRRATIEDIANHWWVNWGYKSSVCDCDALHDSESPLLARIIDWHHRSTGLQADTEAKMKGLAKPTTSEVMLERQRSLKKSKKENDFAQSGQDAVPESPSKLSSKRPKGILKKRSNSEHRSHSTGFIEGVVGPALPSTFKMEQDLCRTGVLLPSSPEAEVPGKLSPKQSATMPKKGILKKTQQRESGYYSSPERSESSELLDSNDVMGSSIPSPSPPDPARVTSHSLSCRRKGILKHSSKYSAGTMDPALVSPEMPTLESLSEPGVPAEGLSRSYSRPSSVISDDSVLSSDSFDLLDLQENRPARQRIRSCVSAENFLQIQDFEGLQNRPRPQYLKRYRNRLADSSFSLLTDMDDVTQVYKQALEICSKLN
Put plainly: Inhibition of ARK5 at 0.1 uM.

The target in data set [10] is Ribosomal protein S6 kinase alpha-1 (Homo sapiens) (UniProt Q15418). In words: Inhibition of Rsk1 at 1 uM.
Chain of Ribosomal protein S6 kinase alpha-1 (Homo sapiens) (Q15418 whole entry): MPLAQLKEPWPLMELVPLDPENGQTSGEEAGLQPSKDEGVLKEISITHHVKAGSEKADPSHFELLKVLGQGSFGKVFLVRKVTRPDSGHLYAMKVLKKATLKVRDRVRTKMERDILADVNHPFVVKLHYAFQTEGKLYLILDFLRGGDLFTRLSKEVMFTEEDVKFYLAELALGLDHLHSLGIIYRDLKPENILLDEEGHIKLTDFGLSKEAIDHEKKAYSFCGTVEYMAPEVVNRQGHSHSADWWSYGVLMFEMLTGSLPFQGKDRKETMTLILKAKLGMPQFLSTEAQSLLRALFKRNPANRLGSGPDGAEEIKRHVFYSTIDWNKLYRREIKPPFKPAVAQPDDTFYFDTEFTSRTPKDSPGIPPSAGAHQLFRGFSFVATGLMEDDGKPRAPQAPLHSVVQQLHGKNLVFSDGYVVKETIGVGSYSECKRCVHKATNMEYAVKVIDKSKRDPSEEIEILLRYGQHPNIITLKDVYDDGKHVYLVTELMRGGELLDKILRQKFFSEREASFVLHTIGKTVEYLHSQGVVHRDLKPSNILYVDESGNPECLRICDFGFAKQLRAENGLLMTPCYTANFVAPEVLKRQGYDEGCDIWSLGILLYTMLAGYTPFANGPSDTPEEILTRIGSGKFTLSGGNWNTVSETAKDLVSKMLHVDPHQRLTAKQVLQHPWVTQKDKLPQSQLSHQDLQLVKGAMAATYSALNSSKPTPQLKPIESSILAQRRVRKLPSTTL
The target in data set [11] is Mast/stem cell growth factor receptor Kit (Homo sapiens) (UniProt P10721). Put plainly: Inhibition of c-Kit at 1 uM.
Data set [12] deals with Macrophage colony-stimulating factor 1 receptor (Homo sapiens) (UniProt P07333). In words: Inhibition of CSF1R at 1 uM.
Data set [13] concerns the target T1, NUAK family SNF1-like kinase 1 (Homo sapiens). In words: Inhibition of ARK5 at 1 uM.
Data set [14] in a line: Half life in rat at 3 mg/kg, iv and 10 mg/kg, po. In kind it is ADME, organism-based. The note with it: in vivo.
Data set [15] is described as follows: Bioavailability in mouse at 3 mg/kg, iv and 10 mg/kg, po. It is filed as ADME, organism-based. The note with it: in vivo.
The nature of data set [16]: Clearance in rat at 3 mg/kg, iv and 10 mg/kg, po. It is filed as ADME, organism-based. The note with it: in vivo.
The nature of data set [17]: Volume of distribution at steady state in mouse at 3 mg/kg, iv and 10 mg/kg, po. It is filed as ADME, organism-based. The note with it: in vivo, read-out: Vdss.
Data set [18] is described as follows: Volume of distribution at steady state in dog at 3 mg/kg, iv and 5 mg/kg, po. In kind it is ADME, organism-based, Canis lupus familiaris. The note with it: in vivo, read-out: Vdss.
The nature of data set [19]: Half life in dog at 3 mg/kg, iv and 5 mg/kg, po. In kind it is ADME, organism-based, Canis lupus familiaris. The note with it: in vivo.
Data set [20] in a line: Bioavailability in dog at 3 mg/kg, iv and 5 mg/kg, po. In kind it is ADME, organism-based, Canis lupus familiaris. Conditions: in vivo.
Data set [21] can be described thus: Clearance in dog at 3 mg/kg, iv and 5 mg/kg, po. In kind it is ADME, organism-based, Canis lupus familiaris. Conditions: in vivo.
The nature of data set [22]: Clearance in mouse at 3 mg/kg, iv and 10 mg/kg, po. In kind it is ADME, organism-based. The note with it: in vivo.
Data set [23] can be described thus: Half life in mouse at 3 mg/kg, iv and 10 mg/kg, po. In kind it is ADME, organism-based. Conditions: in vivo.
Data set [24] is described as follows: Bioavailability in rat at 3 mg/kg, iv and 10 mg/kg, po. It is filed as ADME, organism-based. The note with it: in vivo.
Data set [25] in a line: Volume of distribution at steady state in rat at 3 mg/kg, iv and 10 mg/kg, po. In kind it is ADME, organism-based. The note with it: in vivo, read-out: Vdss.

Values after ≈ are worked out from the molar mass of the structure shown. Values joined by “and” are separate entries in the source; they are usually repeats but may differ in a detail not shown here. Equal entries are not always repeated.

Chain of Macrophage colony-stimulating factor 1 receptor (Homo sapiens) (P07333 whole entry): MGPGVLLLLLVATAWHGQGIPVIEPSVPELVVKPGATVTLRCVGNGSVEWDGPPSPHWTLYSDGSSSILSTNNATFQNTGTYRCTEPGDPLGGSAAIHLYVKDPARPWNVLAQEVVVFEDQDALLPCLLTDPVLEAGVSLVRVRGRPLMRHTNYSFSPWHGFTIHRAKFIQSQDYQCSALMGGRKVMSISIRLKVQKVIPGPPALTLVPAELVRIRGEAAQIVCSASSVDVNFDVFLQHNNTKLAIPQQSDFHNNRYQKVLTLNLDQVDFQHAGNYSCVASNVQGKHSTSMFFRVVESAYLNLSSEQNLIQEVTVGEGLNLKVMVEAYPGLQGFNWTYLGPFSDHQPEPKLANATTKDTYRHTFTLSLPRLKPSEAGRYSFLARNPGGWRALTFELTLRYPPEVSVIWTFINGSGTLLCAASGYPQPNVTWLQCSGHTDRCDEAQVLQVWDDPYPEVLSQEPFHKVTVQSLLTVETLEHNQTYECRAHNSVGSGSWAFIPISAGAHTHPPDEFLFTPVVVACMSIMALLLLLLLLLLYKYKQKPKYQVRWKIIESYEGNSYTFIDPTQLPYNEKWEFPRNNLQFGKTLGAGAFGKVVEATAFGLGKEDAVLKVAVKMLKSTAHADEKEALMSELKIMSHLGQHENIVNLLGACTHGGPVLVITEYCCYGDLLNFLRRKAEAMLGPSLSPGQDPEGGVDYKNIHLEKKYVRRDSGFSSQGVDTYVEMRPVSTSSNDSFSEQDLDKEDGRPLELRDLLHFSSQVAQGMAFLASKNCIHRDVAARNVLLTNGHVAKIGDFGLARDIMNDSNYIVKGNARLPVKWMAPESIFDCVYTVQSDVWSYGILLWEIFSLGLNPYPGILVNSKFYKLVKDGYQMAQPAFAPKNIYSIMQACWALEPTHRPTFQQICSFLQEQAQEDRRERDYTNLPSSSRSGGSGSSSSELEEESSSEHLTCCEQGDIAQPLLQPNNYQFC

In the case of `CCOc1cc2nnc(C(N)=O)c(Nc3cc(C)ccc3F)c2cc1N1CCN(C)CC1`, the solubility – broadly, how much of the substance goes into solution per volume – in data set [1] is 120 µM (≈ 52.6 µg/mL). Moreover, in data set [2], the Activity was 0.04 µM and 0.09 µM. Besides, in [3], the fraction unbound (usually the share of the substance not bound to proteins or other matrix) turned out to be 0.11.

The molecule `COc1cc2nnc(C(N)=O)c(Nc3ccc(F)cc3F)c2cc1OC` gave a solubility in [1] of 3 µM (≈ 1.08 µg/mL). Further, the Activity in data set [2] is 0.16 µM and 0.4 µM.

As to `COc1cc2nnc(C(N)=O)c(Nc3ccc(C)cc3F)c2cc1OC`, the solubility in data set [1] was less than 1 µM. Also, the Activity in data set [2] is 0.11 µM and 0.25 µM.

`COc1cc2nnc(C(N)=O)c(Nc3cccc(Cl)c3Cl)c2cc1OC` yielded a solubility in [1] of less than 1 µM. In addition, in [2], the Activity is 0.05 µM and 0.09 µM.

Consider `COc1cc2nnc(C(N)=O)c(Nc3ccc(F)cc3F)c2cc1N1CCN(C)CC1`, for which, in data set [1], the solubility is 290 µM (≈ 124 µg/mL). In [3], the fraction unbound worked out at 0.096.

For `CCOc1cc2nnc(C(N)=O)c(Nc3cccc(Cl)c3F)c2cc1N1CCN(C)CC1`, the concentration in solution in [1] (solubility) came to 18 µM (≈ 8.26 µg/mL).

Consider `COc1cc2nnc(C(N)=O)c(Nc3ccc(C)cc3F)c2cc1N1CCN(C)CC1`, for which the Activity in [2] was 0.025 µM.

With `CCOc1cc2nnc(C(N)=O)c(Nc3cccc(Cl)c3Cl)c2cc1N1CCN(C)CC1`, the solubility in data set [1] stood at 10 µM (≈ 4.75 µg/mL). Further, the fraction unbound in [3] was less than 0.017.

Consider `CCOc1cc2nnc(C(N)=O)c(Nc3ccc(F)cc3F)c2cc1N1CCN(C)CC1`, for which the inhibition (commonly the change of the read-out against control, counted positive when it falls) turned out to be 100% in data set [4]; 15% in data set [5]; 7% in data set [6]; 35% in data set [7]; 41% in [8]; 23% in data set [9]. The inhibition turned out to be 44% in data set [10], 90% in data set [11], 95% in [12] and 78% in data set [13]. In addition, the unbound share (fraction unbound) in [3] was found to be 0.039.

In data set [1], `COc1cc2nnc(C(N)=O)c(Nc3cccc(Cl)c3F)c2cc1OC` showed a solubility of less than 1 µM. In addition, the Activity in data set [2] is 0.08 µM and 0.12 µM.

In turn, `COc1cc2nnc(C(N)=O)c(Nc3cc(C)ccc3F)c2cc1N1CCN(C)CC1` showed a solubility in data set [1] of 22 µM (≈ 9.34 µg/mL). Further, the Activity in [2] worked out at 0.057 µM.

With `CCOc1cc2nnc(C(N)=O)c(Nc3ccc(C)cc3F)c2cc1N1CCN(C)CC1`, the values for the half-life in data set [14], in [19] and in data set [23] were 9.7 h, 12.6 h and 0.9 h, respectively. In addition, the bioavailability (as a rule, dose-corrected exposure relative to a reference, in per cent) in data set [15] was determined as 82%; in data set [20] it was 78%; in [24], 90%. The clearance was 10 mL/min/kg in data set [16], 2 mL/min/kg in [21] and 12 mL/min/kg in data set [22]. In data set [1], this molecule had a solubility of 27 µM (≈ 11.8 µg/mL). Further, the Vd stood at 0.6 L/kg in data set [17], 1.8 L/kg in data set [18] and 2.8 L/kg in [25]. In addition, in data set [3], the unbound share (fraction unbound) worked out at 0.016.

On to `COc1cc2nnc(C(N)=O)c(Nc3cccc(Cl)c3F)c2cc1N1CCN(C)CC1`, for which the solubility in data set [1] was 110 µM (≈ 48.9 µg/mL). The same molecule showed an Activity in [2] of 0.021 µM.

With `COc1cc2nnc(C(N)=O)c(Nc3cc(C)ccc3F)c2cc1OC`, in data set [1], the solubility was less than 1 µM. Besides, in [2], the Activity was 0.2 µM and 0.21 µM.

(Values after ChEMBL document CHEMBL1681665, “3-amido-4-anilinocinnolines as a novel class of CSF-1R inhibitor” (Bioorg Med Chem Lett, 2011).)
